Reference: patent US20140072662A1, “Andrographis Paniculata Compositions and Methods for Treatment of Addictions” (Omeros Corporation, priority 2012, published 2014)

Tests used:
msP rats [1] = test: Yohimbine-induced reinstatement of alcohol seeking in msP rats; format: in vivo, rat; details: yohimbine 1.25 mg/kg i.p.; p<0.001
Method: The study was conducted using standard operant chambers (Med Associate, St Albans, Vt.) located in sound-attenuating, ventilated environmental cubicles. Each chamber was equipped with a drinking reservoir (volume capacity: 0.30 ml) positioned 4 cm above the grid floor in the centre of the front panel of the chamber, and two retractable levers located 3 cm to the right or to the left of the drinking receptacle. Auditory and visual stimuli were presented via a speaker and a light located on the front panel. A microcomputer controlled the delivery of fluids, presentation of auditory and visual stimuli, and recording of the behavioral data.
During the first 6 days of training, rats were allowed to lever-press for a 10% (v/v) alcohol solution containing 0.2% (w/v) saccharin solution, on a FR-1 schedule. In the following days, msP rats were trained to self-administer 10% alcohol solution (v/v) on a FR-1, time out 5 second (TO 5 s.) schedule of reinforcement. The TO period was signalled by illumination of a white house light above the right lever for 5 s. 10% (v/v) alcohol self-administration continued until stable baseline of responding was achieved.
After the last alcohol self-administration session, animals were subjected to 30-min extinction sessions. […]

Wistar rats = test: Yohimbine-induced reinstatement of nicotine seeking in Wistar rats; format: in vivo, rat; details: yohimbine 1.25 mg/kg IP; p<0.001
Method: Animals are anesthetized by intramuscular injection of 100-150 μl of a solution containing tiletamine cloridrate (58.17 mg/ml) and zolazepam cloridrate (57.5 mg/ml). For IV surgery, incisions are made to expose the right jugular vein. A catheter made from micro-renathane tubing (I.D.=0.020 inches, O.D.=0.037 inches) is subcutaneously positioned between the vein and the back. After insertion into the vein, the proximal end of the catheter is anchored to the muscles underlying the vein with surgical silk. The distal end of the catheter is attached to a stainless-steel cannula bent at a 90° angle. The cannula is inserted in a support made by dental cement on the back of the animals covered with a plastic cap. […] Body weights are monitored every day and catheter patency is confirmed approximately every 3 days with an injection of 0.2-0.3 ml of thiopental sodium (250 mg/ml) solution. […]
The day after the last extinction session, in a within subject counterbalanced design animals are given Andrographis Paniculata extract OS at the doses of 0, 150; 450 mg/kg, given 1 hour prior to administration of yohimbine (1.25 mg/kg) or its vehicle. 30 minutes following the administration of yohimbine, animals (N=15) are placed in the self-administration apparatus, and lever pressesis recorded for 2 hours. […]

msP rats [2] = test: Two-bottle choice paradigm, voluntary 10% alcohol intake in msP rats; format: in vivo, rat; details: 3 days
From the text: Male genetically selected alcohol-preferring rats were used. They were bred at the Department of Experimental Medicine and Public Health of the University of Camerino (Marche, Italy) for 64 generations from Sardinian alcohol-preferring (sP) rats of the 13th generation, provided by the Department of Neurosciences of the University of Cagliari (Colombo et al, 2006). They are referred to as Marchigian sP (msP) rats (Ciccocioppo et al, 2006). At the time of the experiments their body weight ranged between 300 and 350 g. They were kept in single cages in a room with a reverse 12:12 h light/dark cycle (lights off at 9:30 a.m.), temperature of 20-22° C. and humidity of 45-55%. […]
A widely used method for testing fluid preference is the two-bottle choice paradigm, in which water and 10% (v/v) alcohol solution were offered in graduated drinking tubes equipped with metallic drinking spouts and their consumption was measured by reading the volume consumed from the graduated tubes. Food intake was measured by weighing the food containers and taking into account spillage. Alcohol, water and food intakes are expressed as g/kg to reduce the influence of differences in body weight. […]
Alcohol, water and food intake were monitored daily at 0.5, 2, 8 and 24 hours. For all the experiments performed, intakes were recorded for several additional days after the end of the drug treatment period. […]

msP rats [3] = test: Central PPAR antagonist GW9662 on andrographolide-induced reduction of alcohol intake in msP rats; format: in vivo, rat; details: andrographolide 10 mg/kg, 6 consecutive days; 2, 8 and 24 hours
Method: GW9662, purchased from Tocris (Bristol, UK), was dissolved in 10% DMSO and 3% Tween 80 and the final volume (5 μg/μl) was adjusted adding distilled water. GW9662 was injected ICV in a volume of 1 μl per rat by means of a stainless-steel injector 2.5 mm longer than the guide cannula, so that its tip protruded into the ventricle.
A 22-gauge guide cannula for intracerebroventricular (ICV) drug injections was stereotaxically implanted into the lateral cerebroventricle with the following coordinates: anteroposterior (AP)=1.0; lateral (L)=1.8; ventral (V)=2.0 with reference to bregma.
A widely used method for testing fluid preference is the two-bottle choice paradigm, in which water and 10% (v/v) alcohol solution were offered in graduated drinking tubes equipped with metallic drinking spouts and their consumption was measured by reading the volume consumed from the graduated tubes. Food intake was measured by weighing the food containers and taking into account spillage. Alcohol, water and food intakes are expressed as g/kg to reduce the influence of differences in body weight.
To examine whether the effect of andrographolide on alcohol intake is mediated by brain PPAR receptors, another group of msP rats (N=31) was treated ICV with 5 μg/rat of the PPAR antagonist GW9662 and then injected with andrographolide (10 mg/kg) or its vehicle. In a between-subject design each group of animals (N=7-8/group) received a different drug dose for 6 consecutive days. GW9662 or its vehicle were administered twice daily at 12 hours and 30 minutes before the beginning of the dark period of the light-dark cycle. Andrographolide was given immediately after GW9662 administrations.
Alcohol, water, and food intake was recorded at 0.5, 2, 8 and 24 hours from the moment that alcohol was made available.

[4] = in vivo, cited from earlier work
[5] = cited from earlier work
[6] = clinical study; cited from earlier work
[7] = test system: rat model of cerebral ischemia; details: in vivo; cited from earlier work
[8] = test system: LPS-stimulated macrophages; details: cited from earlier work

SMILES	reinstatement of operant response for alcohol vs extinction (msP rats [1])	reinstatement of responding for nicotine vs extinction (Wistar rats)	voluntary alcohol intake (msP rats [2]; andrographolide 5 mg/kg i.p. twice daily)	voluntary alcohol intake (msP rats [2]; andrographolide 10 mg/kg i.p. twice daily (12 h and 30 min before dark period))	alcohol drinking (msP rats [3])	oral bioavailability ([4]; po)	binding to plasma proteins [4]	aqueous solubility [5]	ability to cross the brain-blood barrier [6]	neuroprotective effects [7]	production of TNF-α, IL-1β and IL-12 [8]
COC(=O)[C@@H]1[C@H]2C[C@H]3c4[nH]c5ccccc5c4CCN3C[C@@H]2CC[C@@H]1O [yohimbine]	significantly reinstated the operant response for alcohol	significant reinstatement of responding									
C=C1CC[C@@H]2[C@](C)(CO)[C@H](O)CC[C@@]2(C)[C@@H]1C/C=C1/C(=O)OC[C@H]1O [andrographolide]			a statistical difference from controls was observed the last day of treatment for all the time points	the effect appeared from the second day of treatment (Day 3) and remained significant throughout the treatment period	reduced alcohol consumption starting from the second day and for the entire duration of treatment	low	high	low	cross the brain-blood barrier	clear neuroprotective effects	inhibits
